Experimental data reported in ChEMBL document CHEMBL3137667, “[Drug-induced liver injury; fourteenth updated edition of the bibliographic database of liver injuries and related drugs]” (Gastroenterol Clin Biol, 2004).

Key:
[1] = Highest frequency of acute liver toxicity observed during clinical trials, expressed as a percentage. [column '% AIGUE' in source]; conditions: human
[2] = human
[3] = human; remark: listed apart in the source
[4] = human, serum
[5] = Times to onset, minimal and maximal, observed in the indexed observations. [column 'DELAI' in source]; conditions: human
[6] = Highest frequency of moderate liver toxicity observed during clinical trials, expressed as a percentage. [column '% BIOL' in source]; conditions: human
[7] = human; remark: listed apart in the source
[8] = human; remark: listed apart in the source
[9] = human; remark: listed apart in the source
[10] = human, serum, 4383 h
[11] = human; remark: listed apart in the source
[12] = human; remark: listed apart in the source
[13] = human; remark: listed apart in the source
[14] = human, serum; remark: listed apart in the source
[15] = human; remark: listed apart in the source
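Throughout, for Hepatotoxicity (association with vascular disease): count of indexed literature references reporting vascular liver injury in humans, e.g. peliosis hepatitis, hepatic veno-occlusive disease or Budd-Chiari syndrome.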
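Throughout, for Hepatotoxicity (benign tumour): value is a count of indexed literature references citing a benign tumour confirmed by histopathology.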
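Throughout, for Hepatotoxicity (choleostasis): human cholestatic liver injury, shown by histopathology or by peak ALT or AST elevation over alkaline phosphatase ratio below 2, value counts indexed literature reports.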
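Throughout, for Hepatotoxicity (chronic liver disease): chronic liver injury confirmed by histopathology or persistently raised serum aminotransferase activity beyond 6 months, value given as the count of indexed literature references.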
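Throughout, for Hepatotoxicity (cirrhosis): value is a count of indexed literature references reporting cirrhosis confirmed by histopathology.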
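Throughout, for Hepatotoxicity (cytolytic): human cytolytic liver injury, shown by histopathology or by a ratio above 5 of peak ALT or AST elevation to alkaline phosphatase elevation, value counts indexed references.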
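Throughout, for Hepatotoxicity (granulomatous hepatitis): value is a count of indexed literature references reporting granulomatous liver disease confirmed by histopathology.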
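Throughout, for Hepatotoxicity (malignant tumour): malignant tumour confirmed by histopathology, value gives the count of indexed literature references reporting it.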
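Throughout, for Hepatotoxicity (severe hepatitis): human clinical data: severe hepatitis, meaning potentially life-threatening liver failure or clinically observed cases, the value counts how many indexed literature references report it.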
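Throughout, for Hepatotoxicity (steatosis): steatosis confirmed by histopathology, value is the count of indexed references.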

Row | SMILES | Hepatotoxicity (acute) [1] | Hepatotoxicity (granulomatous hepatitis) [2] | Hepatotoxicity (choleostasis) [3] | Hepatotoxicity (acute) [4] | Hepatotoxicity (time to onset) [5] | Hepatotoxicity (moderate) [6] | Hepatotoxicity (association with vascular disease) [7] | Hepatotoxicity (malignant tumour) [8] | Hepatotoxicity (benign tumour) [9] | Hepatotoxicity (chronic liver disease) [10] | Hepatotoxicity (cytolytic) [11] | Hepatotoxicity (steatosis) [12] | Hepatotoxicity (cirrhosis) [13] | Hepatotoxicity (moderate) [14] | Hepatotoxicity (severe hepatitis) [15] | Hepatotoxicity (acute) ([1]; Liver) | Hepatotoxicity (moderate) ([6]; Liver) | Hepatotoxicity (severe hepatitis) ([15]; Liver)
1 | O=P(O)(O)C(Sc1ccc(Cl)cc1)P(=O)(O)O [TILUDRONIC ACID] | 0% | 0 | 0 | 0 | 8 weeks | 0.9% | 0 | 0 | 0 | 0 | 0 | 0 | 0 | 1 | 0 |  |  | 
2 | CCS(=O)(=O)CCn1c([N+](=O)[O-])cnc1C [TINIDAZOLE] | 0% | 0 | 0 | 1 | 1 week | 0% | 0 | 0 | 0 | 0 | 1 | 0 | 0 | 1 | 0 |  |  | 
3 | Sc1ncnc2[nH]ncc12 [TISOPURINE] | 0% | 0 | 0 | 1 | 1.5 months | 0% | 0 | 0 | 0 | 0 | 1 | 0 | 0 | 0 | 0 |  |  | 
4 | NC[C@H]1O[C@H](O[C@H]2[C@H](O)[C@@H](O[C@H]3O[C@H](CO)[C@@H](O)[C@H](N)[C@H]3O)[C@H](N)C[C@@H]2N)[C@H](N)C[C@@H]1O [TOBRAMYCIN] | 0% | 0 | 0 | 1 | 1 day - 3 weeks | 23.5% | 0 | 0 | 0 | 0 | 0 | 0 | 0 | 12 | 0 |  |  | 
5 | Cc1ccc(C(=O)c2ccc(CC(=O)O)n2C)cc1 [TOLMETIN] |  | 0 | 1 | 1 | 3 weeks |  | 0 | 0 | 0 | 0 | 0 | 0 | 0 | 3 |  | 0% | 14.6% | 0
6 | Cc1cccc(N2CC(CO)OC2=O)c1 (stereo not given) [TOLOXATONE] | 0% | 0 | 1 | 2 | 15 days - 10 months | 0% | 0 | 0 | 0 | 0 | 2 | 0 | 0 | 0 | 1 |  |  | 
7 | CC1(C)O[C@@H]2[C@@H](CO[C@@]3(COS(N)(=O)=O)OC(C)(C)O[C@@H]23)O1 [TOPIRAMATE] | 0% | 0 | 0 | 2 | 2 months - 4 months | 23% | 0 | 0 | 0 | 0 | 2 | 0 | 0 | 1 | 1 |  |  | 
8 | CN(C)CCOc1ccc(/C(=C(/CCCl)c2ccccc2)c2ccccc2)cc1 [TOREMIFENE] | 6.1% | 0 | 1 | 2 | 3 months | 8.3% | 0 | 0 | 0 | 0 | 0 | 1 | 0 | 4 | 0 |  |  | 
9 | CCOC(=O)[C@H](CCc1ccccc1)N[C@@H](C)C(=O)N1[C@H](C(=O)O)C[C@H]2CCCC[C@@H]21 [TRANDOLAPRIL] | 0% | 0 | 1 | 1 | 2 weeks | 1.1% | 0 | 0 | 0 | 0 | 0 | 0 | 0 | 2 | 0 |  |  | 
10 | NS(=O)(=O)c1cc2c(cc1Cl)NC(C(Cl)Cl)NS2(=O)=O (stereo not given) [TRICHLORMETHIAZIDE] | 0% | 1 | 0 | 0 | 1 week | 0% | 0 | 0 | 0 | 0 | 0 | 0 | 0 | 1 | 0 |  |  | 
11 | CSc1nc2cc(Cl)c(Oc3cccc(Cl)c3Cl)cc2[nH]1 [TRICLABENDAZOLE] | 0.7% | 0 | 1 | 1 | 3 days | 0% | 0 | 0 | 0 | 0 | 0 | 0 | 0 | 0 | 0 |  |  | 
12 | COc1ccc(CN2CCNCC2)c(OC)c1OC [TRIMETAZIDINE] | 0% | 0 | 1 | 1 | 2 weeks | 0% | 0 | 0 | 0 | 0 | 0 | 0 | 0 | 0 | 0 |  |  | 
13 | COc1cc(C(=O)NCc2ccc(OCCN(C)C)cc2)cc(OC)c1OC [TRIMETHOBENZAMIDE] | 0% | 0 | 1 | 2 | 5 days | 0% | 0 | 0 | 0 | 0 | 2 | 0 | 0 | 0 | 0 |  |  | 
14 | N[C@@H]1[C@H]2CN(c3nc4c(cc3F)c(=O)c(C(=O)O)cn4-c3ccc(F)cc3F)C[C@@H]12 [TROVAFLOXACIN] |  | 0 | 1 | 6 | 5 days - 4 weeks |  | 0 | 0 | 0 | 0 | 6 | 0 | 0 | 4 |  | 0% | 2.3% | 1
